The results in this text go back to PubChem BioAssay (NCI).

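Five compound concentrations were applied to cells in 96-well plates for 48 hours; endpoints were derived by simple linear interpolation of the resulting dose-response curve. Definition used: TGI = concentration required for complete inhibition of growth.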

Holding throughout (assay): NCI-60 cell line screen, 48 h
Test [1] concerns 786-0 renal.
In test [2] the test system is A498 renal.
Test [3] concerns A549 NSCLC.
For test [4], the system named is BT-549 breast.
Test [5] deals with CAKI-1 renal.
In test [6] the test system is HCT-15 colon.
Test [7] deals with HOP-92 NSCLC.
Test [8] has as its system HT29 colon.
Test [9] has as its system IGROV1 ovarian.
In test [10] the test system is K-562 leukemia.
The test system of test [11] is LOX IMVI melanoma.
Test [12] concerns M14 melanoma.
Test [13] has as its system MCF7 breast.
The subject of test [14] is MDA-MB-435.
Test [15] has as its system RPMI-8226 leukemia.
Test [16] concerns RXF 393 renal.
The test system of test [17] is SK-MEL-28 melanoma.
Test [18] deals with SNB-75 CNS.
The subject of test [19] is U251 CNS.
In test [20] the test system is UO-31 renal.

`COC1(C)CP(=O)(OC(C)C)CC(C)=C1Cl` (stereo not given): the TGI in test [1] is 60 µM; in [2], 37.6 µM; in [3], more than 100 µM; in test [4] it was 46.6 µM; in [5] it was 36.8 µM; in [6], 29.2 µM. The TGI in test [7] was determined as 25.6 µM; in test [8], 26.5 µM; in [9], 29.6 µM; in test [10] it was 7.89 µM; in test [11], 39.4 µM; in test [12], 46.2 µM. The TGI in [13] is 18.6 µM; in test [14] it was more than 100 µM; in [15], 24.4 µM; in test [16] it was 55.2 µM; in [17] it was 61.3 µM; in test [18] it was more than 100 µM. Moreover, the TGI in [19] amounted to 48.9 µM; in test [20] it was 34.2 µM.
As to `CO/C(N)=C(\C#N)N=Cc1ccco1`, the TGI in test [1], in [2], in test [3], in [4], in test [5] and in [6] was more than 100 µM in each case. In addition, the TGI in [7], in [8], in [9], in test [10], in [11] and in test [12] was more than 100 µM throughout. In addition, the TGI in [13], in test [14], in test [15], in test [16], in test [17] and in test [18] was more than 100 µM each time. The TGI in [19] and in test [20] was more than 100 µM each time.
As to `Cc1cc2cc3c(cc2c(-c2ccc([N+](=O)[O-])cc2)n1)OCO3`, the TGI in test [1] is 42.5 µM; in [2], more than 100 µM; in [3] it was more than 100 µM; in test [4], 73.7 µM; in test [5], more than 100 µM; in test [6], more than 100 µM. Besides, the TGI in test [7] was 56.8 µM; in test [8], more than 100 µM; in test [9], 54.9 µM; in test [10] it was more than 100 µM; in test [11] it was more than 100 µM; in test [12], more than 100 µM. Further, the TGI is more than 100 µM in test [13]; more than 100 µM in test [14]; more than 100 µM in test [15]; more than 100 µM in test [16]; more than 100 µM in test [17]; 58.4 µM in test [18]. In addition, the TGI in test [19] and in [20] was more than 100 µM in each case.
For the molecule `C/C(Cl)=N/OC(=O)Nc1ccc(S(N)(=O)=O)c(C)c1`, the TGI was 4.29 µM in [1]; 41.3 µM in [2]; 38.3 µM in [3]; 25.1 µM in test [4]; 3.23 µM in test [5]; 3.86 µM in test [6]. The TGI in [7] was 4.7 µM; in [8], more than 77.7 µM; in test [9], 33.4 µM; in test [10], 3.35 µM; in [11], 6.19 µM; in test [12] it was 25.2 µM. Also, the TGI amounted to 29.1 µM in test [13]; 29.6 µM in test [14]; 6.49 µM in [15]; 31.9 µM in test [16]; 30.6 µM in test [17]; 34.2 µM in [18]. For the same molecule, the TGI in [19] was determined as 33.7 µM; in test [20] it was 28.1 µM.
Consider `O=c1[nH]nc(-c2ccccc2)n1-c1ccncc1`, for which the TGI in test [1], in test [2], in [3], in [4], in test [5] and in test [6] was more than 100 µM each time. Moreover, the TGI in [7], in test [8], in [9], in [10], in test [11] and in test [12] was more than 100 µM in each case. Moreover, the TGI in test [13], in test [14], in [15], in [16], in test [17] and in [18] was more than 100 µM each time. Also, the TGI in [19] and in test [20] was more than 100 µM in each case.
`COC(=O)C1=C(O)C(C(=O)OC)[C@]2(O)[C@H](C(=O)OC)[C@H]1C[C@@H](c1ccc(OC)c(OC)c1)[C@H]2C(=O)OC` (stereo not given in full): the TGI in test [1] was more than 100 µM; in test [2] it was 54.7 µM; in [3], 54.4 µM; in test [4] it was 83.7 µM; in test [5] it was more than 100 µM; in [6], 36.5 µM. For the same molecule, the TGI was more than 100 µM in [7]; more than 100 µM in test [8]; more than 100 µM in [9]; 77.3 µM in test [10]; 29.6 µM in test [11]; more than 100 µM in test [12]. Besides, the TGI was more than 100 µM in test [13]; 44.2 µM in test [14]; 19.1 µM in test [15]; 48.4 µM in test [16]; 90.7 µM in test [17]; 46 µM in test [18]. Besides, the TGI is 25.3 µM in test [19] and more than 100 µM in [20].
Turning to `CC1(C)C2CCC(CN)(C2)C1N` (stereo not given), the TGI in test [1], in [2], in [3], in test [4], in [5] and in test [6] was more than 100 µM in each case. The TGI in test [7], in test [8], in test [9], in test [10], in [11] and in test [12] was more than 100 µM each time. Further, the TGI in [13], in [14], in [15], in [16], in test [17] and in test [18] was more than 100 µM throughout. The TGI in [19] and in test [20] was more than 100 µM in each case.
For the molecule `CCOC(=O)c1oc2cc3c(c4c2c1-c1ccccc1N4C)C=CC(C)(C)O3`, the TGI is more than 53 µM in [1]; more than 71.4 µM in test [2]; more than 100 µM in test [3]; 59.6 µM in [4]; 40.8 µM in [5]; more than 100 µM in test [6]. In addition, the TGI is 17.7 µM in [7]; more than 64 µM in test [8]; 46.5 µM in test [9]; more than 91 µM in [10]; more than 100 µM in test [11]; more than 100 µM in test [12]. Moreover, the TGI is 26.8 µM in test [13]; more than 100 µM in [14]; more than 64 µM in test [15]; 28.9 µM in test [16]; more than 95.4 µM in test [17]; 36.4 µM in [18]. The TGI in [19] amounted to 31 µM; in test [20], 65.5 µM.
With `CCOC(=O)c1cc2c([nH]1)c(O)cc1c2ccn1Cc1ccccc1`, the TGI in [1] came to 32.6 µM; in test [2], 82.4 µM; in test [3] it was 30.3 µM; in test [4], 32.2 µM; in [5], 36.8 µM; in test [6], 30.5 µM. Also, the TGI in [7] was 27.7 µM; in test [8] it was 30.2 µM; in [9] it was 54.3 µM; in test [10] it was 25.3 µM; in test [11] it was 28.1 µM; in test [12], 47.5 µM. Also, the TGI is 44.4 µM in test [13]; 31 µM in [14]; 27.9 µM in test [15]; 21.9 µM in test [16]; 33.8 µM in [17]; 50.2 µM in test [18]. The TGI was determined as 31.6 µM in test [19] and 29.3 µM in test [20].
Regarding `c1ccc(-c2cn3c(nc4ccccc43)c(-c3ccccc3)n2)cc1`, the TGI in test [1] is 45.1 µM; in test [2], more than 78.1 µM; in test [3], more than 100 µM; in test [4], more than 100 µM; in [5], more than 100 µM; in test [6] it was more than 100 µM. Moreover, the TGI in [7] was 62 µM; in test [8], more than 100 µM; in [9] it was more than 100 µM; in test [10], more than 100 µM; in test [11] it was more than 100 µM; in [12] it was more than 100 µM. Moreover, the TGI in [13] is more than 100 µM; in test [14], more than 100 µM; in test [15], more than 100 µM; in [16] it was more than 54.3 µM; in test [17] it was more than 100 µM; in test [18], more than 32.9 µM. In addition, the TGI in test [19] was 32.1 µM; in test [20], more than 65.4 µM.
Regarding `N#Cc1c(=O)n(-c2ccccc2)c(O)c2c(N)n[nH]c12`, the TGI in test [1], in test [2], in test [3], in [4], in test [5] and in test [6] was more than 100 µM throughout. For the same molecule, the TGI in [7], in test [8], in test [9], in test [10], in [11] and in [12] was more than 100 µM each time. Further, the TGI in test [13], in test [14], in test [15], in test [16], in [17] and in [18] was more than 100 µM throughout. In addition, the TGI in [19] and in test [20] was more than 100 µM each time.
`CC(=O)N(C(C)=O)n1c(Cc2ccc(Cl)cc2)n[nH]c1=O`: the TGI in [1], in test [2], in test [3], in test [4], in [5] and in test [6] was more than 100 µM throughout. Also, the TGI in [7], in [8], in test [9], in test [10], in [11] and in test [12] was more than 100 µM throughout. Also, the TGI in [13], in test [14], in test [15], in test [16], in test [17] and in test [18] was more than 100 µM throughout. Besides, the TGI in test [19] and in test [20] was more than 100 µM throughout.
For `COc1ccc2c(c1)-c1nc(=S)n(CCCN(C)C)c3ccc([N+](=O)[O-])c(c13)N2`, the TGI in test [1] is 1.36 µM; in test [2], 22.2 µM; in test [3], 14.8 µM; in test [4], 21.7 µM; in test [5] it was 19.8 µM; in test [6], 17.1 µM. The TGI in test [7] was 20.7 µM; in test [8] it was 1.95 µM; in test [9] it was 2.41 µM; in test [10] it was 3.04 µM; in test [11] it was 4.57 µM; in test [12], 22.1 µM. Further, the TGI in test [13] came to 3.01 µM; in test [14], 16.7 µM; in test [15], 4.31 µM; in test [16], 1.87 µM; in [17], 2.81 µM; in [18], 22.8 µM. The values for the TGI in test [19] and in test [20] were 17.7 µM and 1.82 µM, respectively.
Consider `COC(=O)C1=C(O)C(C(=O)OC)[C@]2(O)[C@H](C(=O)OC)[C@H]1C[C@@H](c1ccc(Cl)cc1)[C@H]2C(=O)OC` (stereo not given in full), for which the TGI in [1] was 23.9 µM; in [2], 27.2 µM; in [3], 89.5 µM; in test [4] it was 38.9 µM; in test [5], more than 100 µM; in [6], 47.7 µM. The TGI in [7] was 73.6 µM; in test [8], 32 µM; in test [9], more than 100 µM; in [10], more than 100 µM; in test [11], 30.1 µM; in test [12] it was 19.5 µM. The TGI in [13] is 24.1 µM; in test [14], 25.4 µM; in test [15], more than 100 µM; in test [16], 19.1 µM; in test [17], 21.4 µM; in [18] it was 38.7 µM. Also, the results for the TGI in test [19] and in test [20] were 20.9 µM and 21.4 µM, respectively.
